Laboratory results from ChEMBL document CHEMBL1201862, “PubChem BioAssay data set” (2004).
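Interpolation was linear, between the two tested concentrations surrounding the appropriate level; five concentrations were tested over 48 hours in 96-well plates. Here, GI50 denotes the concentration required for 50% inhibition of growth.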 The source made the active and inactive calls. Cut-off read from the data, not from the text of the source: active = GI50 up to about 1.1 µM and inactive = higher.

Experiments:
Experiment in all cases: NCI tumour cell line growth inhibition, 48 h
OVCAR-3 = tested on: OVCAR-3
NCI-H460 = tested on: NCI-H460
TK-10 = tested on: TK-10
NCI-H23 = tested on: NCI-H23
786-0 = tested on: 786-0
OVCAR-5 = tested on: OVCAR-5
DU-145 = tested on: DU-145
T47D = tested on: T47D
SK-OV-3 = tested on: SK-OV-3
SNB-75 = tested on: SNB-75
SNB-19 = tested on: SNB-19
SF-295 = tested on: SF-295
HCT-15 = tested on: HCT-15
KM12 = tested on: KM12
SK-MEL-2 = tested on: SK-MEL-2
UACC-257 = tested on: UACC-257
HL-60 = tested on: HL-60
SK-MEL-5 = tested on: SK-MEL-5
MDA-MB-231 = tested on: MDA-MB-231
IGROV-1 = tested on: IGROV-1
SF-539 = tested on: SF-539
A549 = tested on: A549
M14 = tested on: M14
NCI/ADR-RES = tested on: NCI/ADR-RES
Malme-3M = tested on: Malme-3M
K562 = tested on: K562
CAKI-1 = tested on: CAKI-1
MDA-MB-435 = tested on: MDA-MB-435
UACC-62 = tested on: UACC-62
PC-3 = tested on: PC-3
HOP-92 = tested on: HOP-92
HCT-116 = tested on: HCT-116
SR = tested on: SR
SK-MEL-28 = tested on: SK-MEL-28
UO-31 = tested on: UO-31
SF-268 = tested on: SF-268
BT-549 = tested on: BT-549
ACHN = tested on: ACHN
MOLT-4 = tested on: MOLT-4
HOP-62 = tested on: HOP-62
HCC 2998 = tested on: HCC 2998
SN12C = tested on: SN12C
EKVX = tested on: EKVX
SW-620 = tested on: SW-620
CCRF-CEM = tested on: CCRF-CEM
OVCAR-4 = tested on: OVCAR-4
OVCAR-8 = tested on: OVCAR-8
LOX IMVI = tested on: LOX IMVI
MCF7 = tested on: MCF7
RXF 393 = tested on: RXF 393
COLO 205 = tested on: COLO 205
NCI-H226 = tested on: NCI-H226
HT-29 = tested on: HT-29
U-251 = tested on: U-251
MDA-N = tested on: MDA-N
RPMI-8226 = tested on: RPMI-8226
Hs-578T = tested on: Hs-578T
A498 = tested on: A498
NCI-H522 = tested on: NCI-H522

CC(C)NC(=O)OCCN=c1c2ccccc2ccc2ccccc12
GI50 (OVCAR-3): 34.4 µM (inactive)
GI50 (NCI-H460): 45.6 µM (inactive)
GI50 (TK-10): 50.7 µM (inactive)
GI50 (NCI-H23): > 100 µM (inactive)
GI50 (786-0): 59.4 µM (inactive)
GI50 (OVCAR-5): 88.9 µM (inactive)
GI50 (DU-145): 56.2 µM (inactive)
GI50 (T47D): 15.6 µM (inactive)
GI50 (SK-OV-3): 47.6 µM (inactive)
GI50 (SNB-75): 62.5 µM (inactive)
GI50 (SNB-19): 24.4 µM (inactive)
GI50 (SF-295): 38.2 µM (inactive)
GI50 (HCT-15): 38.7 µM
GI50 (KM12): 44.7 µM (inactive)
GI50 (SK-MEL-2): 23.7 µM (inactive)
GI50 (UACC-257): 42.6 µM (inactive)
GI50 (HL-60): 15.8 µM (inactive)
GI50 (SK-MEL-5): 17.6 µM (inactive)
GI50 (MDA-MB-231): 32.1 µM (inactive)
GI50 (IGROV-1): 47.5 µM (inactive)
GI50 (SF-539): 53.2 µM (inactive)
GI50 (A549): 29.3 µM (inactive)
GI50 (M14): 36 µM (inactive)
GI50 (NCI/ADR-RES): 32.6 µM (inactive)
GI50 (Malme-3M): 46.1 µM (inactive)
GI50 (K562): 25 µM (inactive)
GI50 (CAKI-1): 35.9 µM (inactive)
GI50 (MDA-MB-435): 46.6 µM (inactive)
GI50 (UACC-62): 31.4 µM (inactive)
GI50 (PC-3): 23.8 µM (inactive)
GI50 (HOP-92): 27.2 µM (inactive)
GI50 (HCT-116): 34.7 µM (inactive)
GI50 (SR): 24.8 µM (inactive)
GI50 (SK-MEL-28): 32.4 µM (inactive)
GI50 (UO-31): 23.5 µM (inactive)
GI50 (SF-268): 63.7 µM (inactive)
GI50 (BT-549): 49.4 µM (inactive)
GI50 (ACHN): 43.1 µM (inactive)
GI50 (MOLT-4): 24.4 µM (inactive)
GI50 (HOP-62): 41.9 µM (inactive)
GI50 (HCC 2998): 40 µM (inactive)
GI50 (SN12C): 34.8 µM (inactive)
GI50 (EKVX): 35 µM (inactive)
GI50 (SW-620): 64.1 µM (inactive)
GI50 (CCRF-CEM): 21 µM (inactive)
GI50 (OVCAR-4): 33.9 µM (inactive)
GI50 (OVCAR-8): 57.1 µM (inactive)
GI50 (LOX IMVI): 44.9 µM (inactive)
GI50 (MCF7): 44.9 µM (inactive)
GI50 (RXF 393): 36.8 µM (inactive)
GI50 (COLO 205): 27.7 µM (inactive)
GI50 (NCI-H226): 30.4 µM (inactive)
GI50 (HT-29): 39.2 µM (inactive)
GI50 (U-251): 38.3 µM (inactive)
GI50 (MDA-N): 40.6 µM (inactive)
GI50 (RPMI-8226): > 10 µM (inactive)
GI50 (Hs-578T): 35.2 µM (inactive)

CC1=NN(C(=O)CC(=O)Nc2cccc(Cl)c2)C(=O)C1/N=N/c1ccc(C(=O)O)cc1 (stereo unspecified)
GI50 (OVCAR-3): > 100 µM (inactive)
GI50 (NCI-H460): > 100 µM (inactive)
GI50 (TK-10): > 100 µM (inactive)
GI50 (NCI-H23): > 100 µM (inactive)
GI50 (786-0): > 100 µM (inactive)
GI50 (OVCAR-5): > 100 µM (inactive)
GI50 (DU-145): > 100 µM (inactive)
GI50 (T47D): 37.2 µM (inactive)
GI50 (SNB-75): 52.1 µM (inactive)
GI50 (SNB-19): > 100 µM (inactive)
GI50 (SF-295): > 100 µM (inactive)
GI50 (HCT-15): > 100 µM
GI50 (KM12): > 100 µM (inactive)
GI50 (A498): > 100 µM (inactive)
GI50 (SK-MEL-2): > 100 µM (inactive)
GI50 (UACC-257): > 100 µM (inactive)
GI50 (HL-60): > 100 µM (inactive)
GI50 (SK-MEL-5): > 100 µM (inactive)
GI50 (MDA-MB-231): > 100 µM (inactive)
GI50 (IGROV-1): > 100 µM (inactive)
GI50 (SF-539): > 100 µM (inactive)
GI50 (A549): > 100 µM (inactive)
GI50 (M14): > 100 µM (inactive)
GI50 (NCI/ADR-RES): > 100 µM (inactive)
GI50 (Malme-3M): > 100 µM (inactive)
GI50 (K562): > 100 µM (inactive)
GI50 (CAKI-1): > 100 µM (inactive)
GI50 (NCI-H522): > 100 µM (inactive)
GI50 (MDA-MB-435): > 100 µM (inactive)
GI50 (UACC-62): > 100 µM (inactive)
GI50 (PC-3): > 100 µM (inactive)
GI50 (HOP-92): 27.7 µM (inactive)
GI50 (HCT-116): > 100 µM (inactive)
GI50 (SR): 48.9 µM (inactive)
GI50 (SK-MEL-28): > 100 µM (inactive)
GI50 (UO-31): 65.2 µM (inactive)
GI50 (SF-268): > 100 µM (inactive)
GI50 (BT-549): > 100 µM (inactive)
GI50 (ACHN): > 100 µM (inactive)
GI50 (MOLT-4): 78.5 µM (inactive)
GI50 (HOP-62): > 100 µM (inactive)
GI50 (HCC 2998): > 100 µM (inactive)
GI50 (SN12C): > 100 µM (inactive)
GI50 (EKVX): > 100 µM (inactive)
GI50 (SW-620): > 100 µM (inactive)
GI50 (CCRF-CEM): 48.4 µM (inactive)
GI50 (OVCAR-4): > 100 µM (inactive)
GI50 (OVCAR-8): > 100 µM (inactive)
GI50 (LOX IMVI): 82.4 µM (inactive)
GI50 (MCF7): > 100 µM (inactive)
GI50 (RXF 393): > 100 µM (inactive)
GI50 (COLO 205): > 100 µM (inactive)
GI50 (HT-29): > 100 µM (inactive)
GI50 (U-251): > 100 µM (inactive)
GI50 (MDA-N): > 100 µM (inactive)
GI50 (RPMI-8226): > 100 µM (inactive)
GI50 (Hs-578T): > 100 µM (inactive)

CN(NC(=O)c1ccco1)C1=NCCCCN1
GI50 (OVCAR-3): > 100 µM (inactive)
GI50 (NCI-H460): > 100 µM (inactive)
GI50 (TK-10): > 100 µM (inactive)
GI50 (NCI-H23): > 100 µM (inactive)
GI50 (786-0): > 100 µM (inactive)
GI50 (OVCAR-5): > 100 µM (inactive)
GI50 (DU-145): > 100 µM (inactive)
GI50 (T47D): > 100 µM (inactive)
GI50 (SK-OV-3): > 100 µM (inactive)
GI50 (SNB-75): > 100 µM (inactive)
GI50 (SNB-19): > 100 µM (inactive)
GI50 (SF-295): > 100 µM (inactive)
GI50 (HCT-15): > 100 µM
GI50 (KM12): > 100 µM (inactive)
GI50 (SK-MEL-2): > 100 µM (inactive)
GI50 (UACC-257): > 100 µM (inactive)
GI50 (HL-60): > 100 µM (inactive)
GI50 (SK-MEL-5): > 100 µM (inactive)
GI50 (MDA-MB-231): > 100 µM (inactive)
GI50 (IGROV-1): > 100 µM (inactive)
GI50 (SF-539): > 100 µM (inactive)
GI50 (A549): > 100 µM (inactive)
GI50 (M14): > 100 µM (inactive)
GI50 (NCI/ADR-RES): > 100 µM (inactive)
GI50 (Malme-3M): > 100 µM (inactive)
GI50 (K562): > 100 µM (inactive)
GI50 (NCI-H522): > 100 µM (inactive)
GI50 (MDA-MB-435): > 100 µM (inactive)
GI50 (UACC-62): > 100 µM (inactive)
GI50 (PC-3): > 100 µM (inactive)
GI50 (HOP-92): > 100 µM (inactive)
GI50 (HCT-116): > 100 µM (inactive)
GI50 (SR): > 100 µM (inactive)
GI50 (SK-MEL-28): > 100 µM (inactive)
GI50 (UO-31): > 100 µM (inactive)
GI50 (SF-268): > 100 µM (inactive)
GI50 (BT-549): > 100 µM (inactive)
GI50 (ACHN): > 100 µM (inactive)
GI50 (MOLT-4): > 100 µM (inactive)
GI50 (HOP-62): > 100 µM (inactive)
GI50 (HCC 2998): > 100 µM (inactive)
GI50 (SN12C): > 100 µM (inactive)
GI50 (EKVX): > 100 µM (inactive)
GI50 (SW-620): > 100 µM (inactive)
GI50 (CCRF-CEM): > 100 µM (inactive)
GI50 (OVCAR-4): > 100 µM (inactive)
GI50 (OVCAR-8): > 100 µM (inactive)
GI50 (LOX IMVI): > 100 µM (inactive)
GI50 (MCF7): > 100 µM (inactive)
GI50 (RXF 393): > 100 µM (inactive)
GI50 (COLO 205): > 100 µM (inactive)
GI50 (NCI-H226): > 100 µM (inactive)
GI50 (HT-29): > 100 µM (inactive)
GI50 (U-251): > 100 µM (inactive)
GI50 (MDA-N): > 100 µM (inactive)
GI50 (RPMI-8226): > 100 µM (inactive)
GI50 (Hs-578T): > 100 µM (inactive)
